Source: ChEMBL document CHEMBL1201862, “PubChem BioAssay data set” (2004)
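Grown in 96-well plates, cells were treated for 48 hours with each compound at five concentrations. Insufficient inhibition: endpoint recorded as highest concentration tested. GI50 marks 50% less growth.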 Active and inactive are the calls of the source. No stated cut-off is given here; in the data, active = GI50 up to about 1.1 µM and inactive = higher.

Columns and labels:
Assay in all cases: NCI anticancer screen, dose series, 48 h
HCT-116 = tested on: HCT-116
HCT-15 = tested on: HCT-15
IGROV-1 = tested on: IGROV-1
K562 = tested on: K562
LOX IMVI = tested on: LOX IMVI
Malme-3M = tested on: Malme-3M
NCI-H226 = tested on: NCI-H226
NCI-H23 = tested on: NCI-H23
NCI-H460 = tested on: NCI-H460
OVCAR-3 = tested on: OVCAR-3
OVCAR-5 = tested on: OVCAR-5
RXF 393 = tested on: RXF 393
SK-MEL-2 = tested on: SK-MEL-2
U-251 = tested on: U-251
MOLT-4 = tested on: MOLT-4
A498 = tested on: A498

| SMILES | GI50 (HCT-116) | GI50 (HCT-15) [µM] | GI50 (IGROV-1) | GI50 (K562) | GI50 (LOX IMVI) | GI50 (Malme-3M) | GI50 (NCI-H226) | GI50 (NCI-H23) | GI50 (NCI-H460) | GI50 (OVCAR-3) | GI50 (OVCAR-5) | GI50 (RXF 393) | GI50 (SK-MEL-2) | GI50 (U-251) | GI50 (MOLT-4) | GI50 (A498) |
| --- | --- | --- | --- | --- | --- | --- | --- | --- | --- | --- | --- | --- | --- | --- | --- | --- |
| CC1=COC(=O)c2ccccc2N1 | > 100 µM (inactive) | > 100 | > 100 µM (inactive) | > 100 µM (inactive) | > 100 µM (inactive) | > 100 µM (inactive) | > 100 µM (inactive) | > 100 µM (inactive) | > 100 µM (inactive) | > 100 µM (inactive) | > 100 µM (inactive) | > 100 µM (inactive) | > 100 µM (inactive) | > 100 µM (inactive) |  |  |
| CCOC(=O)C(C(=O)c1ccccc1)=C1NCCN1 | > 100 µM (inactive) | > 100 | > 100 µM (inactive) | > 100 µM (inactive) | > 100 µM (inactive) | > 100 µM (inactive) | > 100 µM (inactive) | > 100 µM (inactive) | > 100 µM (inactive) | > 100 µM (inactive) | > 100 µM (inactive) | > 100 µM (inactive) | > 100 µM (inactive) | > 100 µM (inactive) | > 100 µM (inactive) |  |
| O=C1C2C3CC4C5C3C1C5C1(SCCS1)C42 (centres undefined) | > 100 µM (inactive) | > 100 | > 100 µM (inactive) | > 100 µM (inactive) |  | > 100 µM (inactive) | > 100 µM (inactive) |  | > 100 µM (inactive) |  |  | > 100 µM (inactive) | > 100 µM (inactive) | > 100 µM (inactive) | > 100 µM (inactive) | > 100 µM (inactive) |
| CCN(CC)CCn1c2c3ccccc3ccc2c2oc(=O)c3ccccc3c21 | 88.5 µM (inactive) | > 100 | 68.1 µM (inactive) | > 100 µM (inactive) | > 100 µM (inactive) | > 100 µM (inactive) |  | > 100 µM (inactive) | 13.7 µM (inactive) | > 100 µM (inactive) | > 100 µM (inactive) |  | > 100 µM (inactive) | 57 µM (inactive) |  |  |
| COc1ccc(S(=O)(=O)N(CC(=O)O)c2ccccc2)cc1 |  | > 100 | > 100 µM (inactive) | > 100 µM (inactive) | > 100 µM (inactive) | > 100 µM (inactive) |  | > 100 µM (inactive) | > 100 µM (inactive) | > 100 µM (inactive) | > 100 µM (inactive) | > 100 µM (inactive) | > 100 µM (inactive) | > 100 µM (inactive) | > 100 µM (inactive) | > 100 µM (inactive) |
| C[Si](C)(C)OC1(C#N)C2C3CC4C2C(=O)C2C4C3C21 (centres undefined) | > 100 µM (inactive) | > 100 | > 100 µM (inactive) | > 100 µM (inactive) |  | > 100 µM (inactive) | > 100 µM (inactive) |  | > 100 µM (inactive) | > 100 µM (inactive) |  | > 100 µM (inactive) | > 100 µM (inactive) | > 100 µM (inactive) | > 100 µM (inactive) | > 100 µM (inactive) |
| Cn1c(=O)nc2n(-c3ccc(Cl)cc3)c3ccc(Cl)cc3nc-2c1=O | 8.55 µM (inactive) | 8.02 | 19.5 µM (inactive) | 5.02 µM (inactive) | 3.14 µM (inactive) |  | 11.5 µM (inactive) | 2.36 µM (inactive) | 5.98 µM (inactive) | 2.57 µM (inactive) | 16.1 µM (inactive) | 2.04 µM (inactive) | 4.36 µM (inactive) | 1.98 µM (inactive) | 16.8 µM (inactive) | 5.58 µM (inactive) |
| CC(C)(C)C1CCC(=O)C(C(O)CC2CC(=O)N(c3ccccc3)C(=O)C2)C1 (centres undefined) | > 100 µM (inactive) | > 100 | > 100 µM (inactive) | > 100 µM (inactive) | 49.5 µM (inactive) | > 100 µM (inactive) | > 100 µM (inactive) | > 100 µM (inactive) | > 100 µM (inactive) | > 100 µM (inactive) | > 100 µM (inactive) | > 100 µM (inactive) |  | 80.2 µM (inactive) | 54.5 µM (inactive) | > 100 µM (inactive) |
| COc1ccc(/C(=N\NC(=O)C(=O)NN)C(c2ccc(OC)cc2)C2(O)C(=O)Nc3ccccc32)cc1 (centres undefined) | > 100 µM (inactive) | 94.8 | > 100 µM (inactive) | 26.7 µM (inactive) |  | 42.7 µM (inactive) | > 100 µM (inactive) | 89.5 µM (inactive) | 60.3 µM (inactive) | > 100 µM (inactive) | > 100 µM (inactive) |  | 69.7 µM (inactive) | > 100 µM (inactive) | 6.44 µM (inactive) | 48.8 µM (inactive) |
| COc1ccc(C2Cc3cc(OC)c(OC)c(OC)c3C2=O)cc1 (centres undefined) | > 100 µM (inactive) | > 100 | > 100 µM (inactive) | 80 µM (inactive) | > 100 µM (inactive) | > 100 µM (inactive) | > 100 µM (inactive) | 87.9 µM (inactive) | > 100 µM (inactive) | > 100 µM (inactive) | > 100 µM (inactive) |  | > 100 µM (inactive) | > 100 µM (inactive) | > 100 µM (inactive) | > 100 µM (inactive) |
| N#CCCN(c1ccc(C=O)cc1)S(=O)(=O)c1ccccc1 | > 100 µM (inactive) | > 100 | > 100 µM (inactive) | > 100 µM (inactive) | > 100 µM (inactive) | > 100 µM (inactive) | > 100 µM (inactive) |  | > 100 µM (inactive) | > 100 µM (inactive) | > 100 µM (inactive) |  | > 100 µM (inactive) | > 100 µM (inactive) | > 100 µM (inactive) | > 100 µM (inactive) |
| CCOC(=O)C(=O)Nc1cccc(Cl)c1C | > 100 µM (inactive) | > 100 | > 100 µM (inactive) | > 100 µM (inactive) | > 100 µM (inactive) | > 100 µM (inactive) | > 100 µM (inactive) | > 100 µM (inactive) | > 100 µM (inactive) | > 100 µM (inactive) | > 100 µM (inactive) | > 100 µM (inactive) | > 100 µM (inactive) | > 100 µM (inactive) | > 100 µM (inactive) |  |
| CN(C)CC/C(=N\Nc1ccccc1)c1ccccc1 | 12.2 µM (inactive) | 2.88 | 29.4 µM (inactive) | 2.48 µM (inactive) |  | 4.78 µM (inactive) |  | 23 µM (inactive) |  | 13.9 µM (inactive) | 14.4 µM (inactive) | 31.2 µM (inactive) | 9.16 µM (inactive) | 27.4 µM (inactive) | 2.83 µM (inactive) |  |
| Cc1ccccc1C(=O)Oc1ccc(O)cc1 | > 100 µM (inactive) | > 100 | > 100 µM (inactive) | > 100 µM (inactive) |  | > 100 µM (inactive) | > 100 µM (inactive) | > 100 µM (inactive) | > 100 µM (inactive) | > 100 µM (inactive) | > 100 µM (inactive) | > 100 µM (inactive) | > 100 µM (inactive) | > 100 µM (inactive) | > 100 µM (inactive) | > 100 µM (inactive) |
| O=c1cc(-c2ccccc2)c2cc3c(=O)ccoc3cc2o1 | > 100 µM (inactive) | > 100 |  | > 100 µM (inactive) | > 100 µM (inactive) | 81.5 µM (inactive) | 79.1 µM (inactive) | > 100 µM (inactive) | > 100 µM (inactive) | > 100 µM (inactive) |  | 20 µM (inactive) | > 100 µM (inactive) | > 100 µM (inactive) | > 100 µM (inactive) | 15.7 µM (inactive) |
